Experimental data from patent publication US6479548B2, “Substituted stilbenes as glucose uptake enhancers” (Telik, Inc., priority 2000, dated 2002).

target: T1, complete β-kinase domain of the human insulin receptor (CKD) (Homo sapiens, UniProt P06213); assay: 32P-CKD autophosphorylation assay; assay type: biochemical; details: 10 min; compound at 10 μM; phosphorylation of CKD expressed as % of the vehicle level; read-out: Activity (% vs. control)
T1 construct: The complete β-kinase domain of the human insulin receptor (CKD); made in house
T1 sequence (P06213 1023-1298 limits assumed): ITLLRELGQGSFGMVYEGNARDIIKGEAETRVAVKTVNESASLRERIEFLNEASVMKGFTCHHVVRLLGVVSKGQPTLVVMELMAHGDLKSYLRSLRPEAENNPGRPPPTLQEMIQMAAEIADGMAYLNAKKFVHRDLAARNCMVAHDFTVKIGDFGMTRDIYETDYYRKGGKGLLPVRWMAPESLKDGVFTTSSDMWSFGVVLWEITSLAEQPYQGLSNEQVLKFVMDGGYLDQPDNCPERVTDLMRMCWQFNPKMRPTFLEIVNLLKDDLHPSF
Method: The complete β-kinase domain of the human insulin receptor (CKD) was expressed in, and purified from, baculovirus. CKD (4.0 μg/ml), in a solution of 29 mM HEPES (pH 7.6), 0.05% Triton X-100, 10 mM MgCl2, 2 mM MnCl2 (50 μl final volume), is combined with 50 μM ATP, and 5 μCi ^32P-ATP (3000 Ci/mmol).

Structure (SMILES) | activity at 10 µM
CN(C(=O)c1ccccc1)c1ccc(/C=C/c2ccccc2)cc1C(=O)O [Compound 25, 5-((1E)-2-phenylvinyl)-2-(N-methylphenylcarbonylamino)benzoic acid] | 59%
COC(=O)c1cc(/C=C/c2ccccc2)ccc1NC(=O)c1ccccc1 [Compound 27, methyl 5-((1E)-2-phenylvinyl)-2-[phenylcarbonylamino)benzoate] | 73%
COc1ccc(/C=C/c2ccc(N(C)C(=O)c3ccccc3)c(C(=O)O)c2)cc1 [Compound 28, 5-[(1E)-2-(4-methoxyphenyl)vinyl]-2-(N-methylphenylcarbonylamino)benzoic acid] | 75%
COC(=O)c1ccc(N(C(C)=O)c2ccc(C(=O)Nc3ccc(/C=C/c4ccc(S(=O)(=O)O)cc4)cc3C(=O)OC)cc2)cc1 [Compound 36, 4-((1E)-2-{3-(methoxycarbonyl)-4-[(4-{[4-(methoxycarbonyl)phenyl]-N-methyl-carbonylamino}phenyl)carbonylamino]phenyl}vinyl)benzenesulfonic acid] | 171%
O=C(Nc1ccc(/C=C/c2ccccc2)c(C(=O)O)c1)c1ccccc1 [Compound 38, 2-((1E)-2-phenylvinyl)-5-(phenylcarbonylamino)benzoic acid] | 105%
COC(=O)c1ccc(/C=C/c2ccc(NC(=O)c3ccc(N(C)C(=O)c4ccc(C(=O)OC)cc4)cc3)cc2)cc1 [Compound 44, methyl 4-(N-{4-[N-(4-{(1E)-2-[4-(methoxycarbonyl)phenyl]vinyl}phenyl)-carbamoyl]phenyl}-N-methylcarbamoyl)benzoate] | 97%
COC(=O)c1ccc(N(C(C)=O)c2ccc(C(=O)Nc3ccc(/C=C/c4cccc(CC(=O)O)c4)cc3)cc2)cc1 [Compound 46, 2-[3-((1E)-2-{4-[(4-{[4-(methoxycarbonyl)phenyl]-N-methylcarbonylamino}-phenyl)carbonylamino]phenyl}vinyl)phenyl]acetic acid] | 91%
COC(=O)c1ccc(N(C(C)=O)c2ccc(N(C(C)=O)c3ccc(/C=C/c4ccc(OC(C)(C)C)c(C(=O)O)c4)cc3)cc2)cc1 [Compound 49, 5-((1E)-2-{4-[(4-{[4-(methoxycarbonyl)phenyl]-N-methylcarbonylamino}phenyl)-N-methylcarbonylamino]phenyl}vinyl)-2-(tert-butoxy)benzoic acid] | 81%
CC(=O)N(c1ccc(/C=C/c2ccc(OC(C)(C)C)c(C(=O)O)c2)cc1)c1ccc(N(C(C)=O)c2ccc(C(=O)O)cc2)cc1 [Compound 50, 5-{(1E)-2-[4-({4-[(4-carboxyphenyl)-N-methylcarbonylamino]phenyl}-N-methyl-carbonylamino)phenyl]vinyl}-2-(tert-butoxy)benzoic acid] | 105%
COC(=O)c1cc(/C=C/c2ccccc2)ccc1NC(=O)c1ccc(OC)c(OC)c1 [Compound 52, methyl 5-((1E)-2-phenylvinyl)-2-[(3,4-dimethoxyphenyl)carbonylamino]benzoate] | 54%
COc1cccc(C(=O)Nc2ccc(/C=C/c3ccccc3)cc2CC(=O)O)c1 [Compound 55, 2-{5-((1E)-2-phenylvinyl)-2-[(3-methoxyphenyl)carbonylamino]phenyl}acetic acid] | 117%

The next lines start with the values.

activity at 10 µM | Structure (SMILES)
107% | COc1cc(C(=O)Nc2ccc(/C=C/c3ccccc3)cc2C(=O)O)cc(OC)c1OC [Compound 26, 5-((1E)-2-phenylvinyl)-2-[(3,4,5-trimethoxyphenyl)carbonylamino]benzoic acid]
61% | COC(=O)c1ccc(C(=O)N(C)c2ccc(C(=O)Nc3ccc(/C=C/c4ccc(OC)cc4)cc3C(=O)OC)cc2)cc1 [Compound 29, methyl 4-{N-[4-(N-{4-[(1E)-2-(4-methoxyphenyl)vinyl]-2-(methoxycarbonyl)-phenyl}carbamoyl)phenyl]-N-methylcarbamoyl}benzoate]
93% | COC(=O)c1ccc(N(C(C)=O)c2ccc(C(=O)Nc3ccc(/C=C/c4ccc(OC)cc4)cc3C(=O)O)cc2)cc1 [Compound 30, 5-[(1E)-2-(4-methoxyphenyl)vinyl]-2-[(4-{[4-(methoxycarbonyl)phenyl]-N-methyl-carbonylamino}phenyl)carbonylamino]benzoic acid]
121% | COc1ccc(/C=C/c2ccc(NC(=O)c3ccc(N(C(C)=O)c4ccc(C(=O)O)cc4)cc3)c(C(=O)O)c2)cc1 [Compound 31, 5-[(1E)-2-(4-methoxyphenyl)vinyl]-2-({4-[(4-carboxyphenyl)-N-methylcarbonyl-amino]phenyl}carbonylamino)benzoic acid]
81% | COC(=O)c1ccc(C(=O)N(C)c2ccc(C(=O)Nc3ccc(/C=C/c4ccccc4F)cc3C(=O)OC)cc2)cc1 [Compound 32, methyl 4-{N-[4-(N-{4-[(1E)-2-(2-fluorophenyl)vinyl]-2-(methoxycarbonyl)phenyl}-carbamoyl)phenyl]-N-methylcarbamoyl}benzoate]
78% | CC(=O)N(c1ccc(C(=O)O)cc1)c1ccc(C(=O)Nc2ccc(/C=C/c3ccccc3F)cc2C(=O)O)cc1 [Compound 33, 5-[(1E)-2-(2-fluorophenyl)vinyl]-2-({4-[(4-carboxyphenyl)-N-methylcarbonyl-amino]phenyl}carbonylamino)benzoic acid]
88% | COC(=O)c1ccc(C(=O)N(C)c2ccc(C(=O)Nc3ccc(/C=C/c4ccc(F)cc4)cc3C(=O)OC)cc2)cc1 [Compound 34, methyl 4-{N-[4-(N-{4-[(1E)-2-(4-fluorophenyl)vinyl]-2-(methoxycarbonyl)phenyl}-carbamoyl)phenyl]-N-methylcarbamoyl}benzoate]
177% | CC(=O)N(c1ccc(C(=O)O)cc1)c1ccc(C(=O)Nc2ccc(/C=C/c3ccc(F)cc3)cc2C(=O)O)cc1 [Compound 35, 5-[(1E)-2-(4-fluorophenyl)vinyl]-2-({4-[(4-carboxyphenyl)-N-methylcarbonyl-amino]phenyl}carbonylamino)benzoic acid]
93% | COC(=O)c1ccc(C(=O)N(C)c2ccc(C(=O)Nc3ccc(/C=C/c4cccc(F)c4)cc3C(=O)OC)cc2)cc1 [Compound 37, methyl 4-{N-[4-(N-{4-[(1E)-2-(3-fluorophenyl)vinyl]-2-(methoxycarbonyl)phenyl}-carbamoyl)phenyl]-N-methylcarbamoyl}benzoate]
64% | COC(=O)c1ccc(N(C(C)=O)c2ccc(C(=O)Nc3ccc(/C=C/c4ccccc4)c(C(=O)O)c3)cc2)cc1 [Compound 39, 2-((1E)-2-phenylvinyl)-5-[(4-{[4-(methoxycarbonyl)phenyl]-N-methylcarbonyl-amino}phenyl)carbonylamino]benzoic acid]
80% | O=C(Nc1ccc(/C=C/c2ccccc2)cc1C(=O)O)c1cc(O)cc(O)c1 [Compound 41, 5-((1E)-2-phenylvinyl)-2-[(3,5-dihydroxyphenyl)carbonylamino]benzoic acid]
123% | COc1cccc(C(=O)Nc2ccc(/C=C/c3ccccc3)cc2C(=O)O)c1 [Compound 42, 5-((1E)-2-phenylvinyl)-2-[(3-methoxyphenyl)carbonylamino]benzoic acid]
105% | COc1ccc(C(=O)Nc2ccc(/C=C/c3ccccc3)cc2C(=O)O)cc1OC [Compound 53, 5-((1E)-2-phenylvinyl)-2-[(3,4-dimethoxyphenyl)carbonylamino]benzoic acid]
107% | COc1ccc(/C=C/c2ccc(N(Cc3ccc(C(=O)O)cc3)C(=O)c3ccc(N(C(C)=O)c4ccc(C(=O)O)cc4)cc3)c(C(=O)O)c2)cc1 [Compound 57, 5-[(1E)-2-(4-methoxyphenyl)vinyl]-2-(N-[(4-carboxyphenyl)methyl]{4-[(4-carboxy-phenyl)-N-methylcarbonylamino]phenyl}carbonylamino)benzoic acid]
94% | O=C(O)COc1cc(OCC(=O)O)cc(C(=O)Nc2ccc(/C=C/c3ccccc3)cc2C(=O)O)c1 [Compound 59, 5-((1E)-2-phenylvinyl)-2-{[3,5-bis(carboxymethoxy)phenyl]carbonylamino}benzoic acid]
80% | O=C(O)c1ccc(COc2cc(OCc3ccc(C(=O)O)cc3)cc(C(=O)Nc3ccc(/C=C/c4ccccc4)cc3C(=O)O)c2)cc1 [Compound 60, 5-((1E)-2-phenylvinyl)-2-({3,5-bis[(4-carboxyphenyl)methoxy]phenyl}carbonyl-amino)benzoic acid]

same assay, conditions: compound at 10 μM; phosphorylation of CKD expressed as % of the vehicle level

Activity (% vs. control) | Structure (SMILES)
51% | COc1ccc(/C=C/c2ccc(NC(=O)c3ccc4c(c3)OCO4)cc2)cc1 [Compound 56, N-{4-[(1E)-2-(4-methoxyphenyl)vinyl]phenyl}-2H-benzo[d]1,3-dioxolen-5-yl-carboxamide]
